Reference: PMC12340070, “A novel modulator of IL-6R prevents inflammation-induced preterm birth and improves newborn outcome” (EMBO Molecular Medicine, 2025)

How the values were obtained:
AKT = AKT phosphorylation in HEK-Blue IL-6 cells (immunoblot); type: cell-based, human; conditions: for p-AKT phospho/total: 10 min, densitometry
Description: (§1) For RT-qPCR experiments, cells were plated in 6-well plates at 70% of confluence and starved overnight. Cells were treated respectively with HSJ633, HSJ630, HSJ631, HSJ634, HSJ635, HSJ639 (1 × 10^−6 M), or TCZ (3.44 μM, based on validated doses (Sahraoui et al, [2014])) for TNF-α expression. For hIL-1, hIL-6, and hTNF-α expression, cells were treated with HSJ633 using concentrations ranging from 10^−11 to 10^−4 M, allowing for equilibrium over 15 min. Cells were then treated with […] of IL-6 for 6 h for both experiments. Cell lysis was performed by adding RIBOzol. Samples were stored at −20 °C until analysis by quantitative PCR. To determine the degree of phosphorylation of different proteins (STAT3, ERK, AKT, and p38), HEK-Blue IL-6 cells were treated with HSJ633 (10^−6 M), TCZ (3.44 uM) or vehicle for 30 min in DMEM only. […] For p38 activation, 25 min of stimulation with IL-6 was required. The wells were charged with radioimmunoprecipitation assay buffer (RIPA) at a concentration of 1×, cOmplete EDTA-free Protease Inhibitor Cocktail final concentration 1×, and phenylmethanesulfonyl fluoride (PMSF) 1 mM. Samples were shaken for 30 min followed by centrifugation at 12,000 RPM at 4 °C for 20 min to harvest the proteins. Proteins were stored at −80 °C until analysis by immunoblotting.
(§2) A total of 15 μL of protein from HEK-Blue IL-6 cells combined with Laemmli-SDS 1× (reducing) was loaded onto SDS-PAGE gel and electro-transferred onto polyvinylidene difluoride membranes. After blocking with BSA 5%-TBST for 1 h, membranes were incubated with the following antibodies (Ab): either mouse anti-phospho-STAT3 (1:1000), rabbit anti-phospho-AKT (1:1000), rabbit anti-phospho-ERK1/2 (1:1000), rabbit anti-phospho-p38 (1:1000), rabbit anti-cytochrome c oxidase 4 (1:5000) or mouse anti-GAPDH (1:20,000, Proteintech). After washing, membranes were incubated for 1 h with secondary antibodies conjugated to HRP (1:3000 Anti-rabbit IgG, HRP-linked Antibody and 1:5000 Goat Anti-Mouse IgG (H + L)-HRP Conjugate). Samples were normalized by membrane stripping (15 g glycine, 1 g SDS, 10 mL Tween-20 at pH 2,2) and incubation with Ab (mouse anti-STAT3 (1:1000), rabbit anti-AKT (1:1000), rabbit anti-ERK1/2 (1:1000) or rabbit anti-p38 (1:1000)). After washing, membranes were incubated for 1 h with secondary antibodies conjugated to HRP (1:3000 Anti-rabbit IgG, HRP-linked antibody and 1:5000 goat anti-mouse IgG (H + L)-HRP Conjugate). Western Lightning Plus ECL or Clarity MAX Western ECL Substrate were used for protein detection using the ChemiDoc MP, and densitometric analysis were completed with ImageLab from Bio-Rad Laboratories.

[1] = system: preterm birth in pregnant women; conditions: pregnancies prospectively reported following exposure; ref Hoeltzenbein et al, 2016; cited from earlier work
Description: Complete or partial inhibition of the IL-6 receptor by HSJ633 reduces maternal inflammation and thus prematurity levels.

[2] = system: murine IL-6R (Ba/F3-gp130-mIL-6R); conditions: ref Lokau et al, 2020; cited from earlier work
Description: HSJ633 has been formulated based on the human IL-6 receptor. […] Both Tocilizumab and MR-16 act as orthosteric antagonists, competitively interfering with IL-6 for receptor occupancy (Lokau et al, [2020]). The ...

STAT3 = STAT3 phosphorylation in HEK-Blue IL-6 cells (immunoblot); type: cell-based, human; conditions: for p-STAT3 phospho/total: 10 min, densitometry
Description: as §1, §2

ERK1/2 = ERK1/2 phosphorylation in HEK-Blue IL-6 cells (immunoblot); type: cell-based, human; conditions: for p-ERK 1/2 phospho/total: 10 min, densitometry
Description: as §1, §2

p38 = p38 phosphorylation in HEK-Blue IL-6 cells (immunoblot); type: cell-based, human; conditions: for p-p38 phospho/total: densitometry
Description: For RT-qPCR experiments, cells were plated in 6-well plates at 70% of confluence and starved overnight. Cells were treated respectively with HSJ633, HSJ630, HSJ631, HSJ634, HSJ635, HSJ639 (1 × 10^−6 M), or TCZ (3.44 μM, based on validated doses (Sahraoui et al, [2014])) for TNF-α expression. For hIL-1, hIL-6, and hTNF-α expression, cells were treated with HSJ633 using concentrations ranging from 10^−11 to 10^−4 M, allowing for equilibrium over 15 min. Cells were then treated with […] of IL-6 for 6 h for both experiments. Cell lysis was performed by adding RIBOzol. Samples were stored at −20 °C until analysis by quantitative PCR. To determine the degree of phosphorylation of different proteins (STAT3, ERK, AKT, and p38), HEK-Blue IL-6 cells were treated with HSJ633 (10^−6 M), TCZ (3.44 uM) or vehicle for 30 min in DMEM only. Human IL-6 (3.86 nM) was added to the medium for 15 min to stimulate IL-6R pathways leading to STAT3, ERK, and AKT activation. For p38 activation, 25 min of stimulation with IL-6 was required. The wells were charged with radioimmunoprecipitation assay buffer (RIPA) at a concentration of 1×, cOmplete EDTA-free Protease Inhibitor Cocktail final concentration 1×, and phenylmethanesulfonyl fluoride (PMSF) 1 mM. Samples were shaken for 30 min followed by centrifugation at 12,000 RPM at 4 °C for 20 min to harvest the proteins. Proteins were stored at −80 °C until analysis by immunoblotting.
as §2

[3] = HEK-Blue IL-6, IL-6 3.86 nM, HSJ633 1 μM, TCZ 3.44 μM

Tocilizumab: IL-6R orthosteric antagonist monoclonal antibody
p-AKT phospho/total (AKT; average): 0.06 | p-AKT phospho/total (AKT; replicate 2): 0.0565 | p-AKT phospho/total (AKT; replicate 3): 0.06 | AKT phosphorylation, result in words (AKT; [3]): blocked | increase rate in preterm birth vs general population [1]: 31.1% | proliferation and activation of STAT3 in Ba/F3-gp130-mIL-6R [2]: no hindrance on the proliferation and activation of STAT3 | p-STAT3 phospho/total (STAT3; mean (Moyenne)): 0.57 | p-STAT3 phospho/total (STAT3; replicate 2): 0.67 | p-STAT3 phospho/total (STAT3; replicate 3): 0.46 | STAT3 phosphorylation, result in words (STAT3; [3]): blocked | p-ERK 1/2 phospho/total (ERK1/2; average): 0.11 | p-ERK 1/2 phospho/total (ERK1/2; replicate 2 (633-2 marked Outliers)): 0.12 | p-ERK 1/2 phospho/total (ERK1/2; replicate 3): 0.09 | ERK1/2 phosphorylation, result in words (ERK1/2; [3]): blocked | p38 phosphorylation, result in words (p38; [3]): blocked | p-p38 phospho/total (p38; average): 0.66 | p-p38 phospho/total (p38; replicate 1): 0.67 | p-p38 phospho/total (p38; replicate 2): 0.65
